≈ marks a conversion by molar mass, not a printed value. Calls of active or inactive are those of the source. The calls are words filed in the database; no cut-off is given here.

Series [1] relates to Talaromyces funiculosus. The series can be described thus: Antifungal activity against Penicillium funiculosum ATCC 11797 incubated for 24 hrs by serial dilution method. It is filed as functional.
For series [2], the system named is Talaromyces funiculosus. Description: Antifungal activity against Penicillium funiculosum ATCC 11797 at 100 ug/ml incubated for 72 hrs by agar disc diffusion assay. Format: functional. In general terms: A growth-free zone around the sample is the usual read-out of agar diffusion tests.
Series [3] has as its system Bacillus subtilis. Description: Antibacterial activity against Bacillus subtilis MTCC 10619 incubated for 24 hrs by serial dilution method. Format: functional.
In series [4] the test system is Escherichia coli. Description: Antibacterial activity against Escherichia coli MTCC 443 at 100 ug/ml incubated for 12 hrs by agar disc diffusion assay. The note with it: for zone of inhibition at 100 µg/mL: MTCC 443, 12 h, read-out: IZ. It is filed as functional.
Series [5] in a line: Cytotoxicity against mouse NIH/3T3 cells assessed as cell viability at 25 ug/ml after 72 hrs by MTT assay relative to control. The following applies: read-out: Activity. It is filed as cell-based, NIH3T3.
In series [6] the test system is Trichoderma reesei. The series can be described thus: Antifungal activity against Trichoderma reesei ATCC 13631 at 100 ug/ml incubated for 72 hrs by agar disc diffusion assay. It is filed as functional.
In series [7] the test system is Fusarium oxysporum. The series can be described thus: Antifungal activity against Fusarium oxysporum ATCC 62506 at 100 ug/ml incubated for 72 hrs by agar disc diffusion assay. The following applies: for zone of inhibition at 100 µg/mL: ATCC 62506, 72 h, read-out: IZ. Format: functional.
A short description of series [8]: Cytotoxicity against mouse NIH/3T3 cells assessed as cell viability at 50 ug/ml after 72 hrs by MTT assay relative to control. It is filed as cell-based, NIH3T3. The note with it: read-out: Activity. A general note: Tetrazolium assays rely on reduction of a dye to a coloured formazan, in cell work by metabolically active cells.
Series [9] concerns Streptomyces griseus. The series can be described thus: Antibacterial activity against Streptomyces griseus MTCC 4734 incubated for 24 hrs by serial dilution method. Format: functional.
For series [10], the system named is Streptomyces griseus. Description: Antibacterial activity against Streptomyces griseus MTCC 4734 at 100 ug/ml incubated for 12 hrs by agar disc diffusion assay. It is filed as functional.
The subject of series [11] is Aspergillus niger. The series can be described thus: Antifungal activity against Aspergillus niger ATCC 9029 incubated for 24 hrs by serial dilution method. It is filed as functional.
In series [12] the test system is Staphylococcus aureus. Description: Antibacterial activity against Staphylococcus aureus MTCC 3381 incubated for 24 hrs by serial dilution method. It is filed as functional.
Series [13] deals with Staphylococcus aureus. Description: Antibacterial activity against Staphylococcus aureus MTCC 3381 at 100 ug/ml incubated for 12 hrs by agar disc diffusion assay. Format: functional.
The test system of series [14] is Trichoderma reesei. Description: Antifungal activity against Trichoderma reesei ATCC 13631 incubated for 24 hrs by serial dilution method. Format: functional.
For series [15], the system named is Aspergillus niger. Description: Antifungal activity against Aspergillus niger ATCC 9029 at 100 ug/ml incubated for 72 hrs by agar disc diffusion assay. It is filed as functional.
Series [16] concerns Fusarium oxysporum. Description: Antifungal activity against Fusarium oxysporum ATCC 62506 incubated for 24 hrs by serial dilution method. Format: functional.
Series [17] is described as follows: Cytotoxicity against mouse NIH/3T3 cells assessed as cell viability at 250 ug/ml after 72 hrs by MTT assay relative to control. Format: cell-based, NIH3T3. The note with it: read-out: Activity.
In series [18] the test system is Bacillus subtilis. The series can be described thus: Antibacterial activity against Bacillus subtilis MTCC 10619 at 100 ug/ml incubated for 12 hrs by agar disc diffusion assay. Format: functional. The note with it: for zone of inhibition at 100 µg/mL: MTCC 10619, 12 h, read-out: IZ.
Series [19] concerns Escherichia coli. Description: Antibacterial activity against Escherichia coli MTCC 443 incubated for 24 hrs by serial dilution method. Format: functional.
The nature of series [20]: Cytotoxicity against mouse NIH/3T3 cells assessed as cell viability at 100 ug/ml after 72 hrs by MTT assay relative to control. The note with it: read-out: Activity. It is filed as cell-based, NIH3T3.

By MIC is commonly meant the lowest concentration found to suppress growth. `O=C1Oc2ccc(Cl)cc2N/C1=C\C(=O)C1CC1`: the MIC entry in series [1], in [9], in [11] and in series [14] was “inactive” each time. Further, the “inhibition zone (IZ)” value in [2], in [6], in series [10] and in series [15] was “inactive” each time. For the same molecule, the MIC in series [3] (MTCC 10619, 24 h) amounted to 100 µg/mL (≈ 379 µM); in [12] (MTCC 3381, 24 h), 12.5 µg/mL (≈ 47.4 µM); in [16] (ATCC 62506, 24 h), 12.5 µg/mL (≈ 47.4 µM); in series [19] (MTCC 443, 24 h), 50 µg/mL (≈ 190 µM). Moreover, the zone of inhibition at 100 µg/mL in series [4] came out at 10 mm; in series [7] it was 22 mm; in series [13] (MTCC 3381, 12 h, read-out: IZ), 12 mm; in series [18], 8 mm. For the same molecule, in [5], the viability at 72 h, 25 ug/ml turned out to be 99%. Further, the viability at 72 h, 50 ug/ml in series [8] was 90.3%. For the same molecule, the viability at 72 h, 250 ug/ml in series [17] amounted to 79.1%. Besides, in [20], the viability at 72 h, 100 ug/ml was determined as 86.6%.

With `O=C1Oc2cc([N+](=O)[O-])ccc2N/C1=C\C(=O)c1ccc(-c2ccccc2)cc1`, the MIC result in series [1], in series [11], in [12] and in series [14] was “inactive” throughout. Besides, the “inhibition zone (IZ)” value in series [2], in series [6], in series [13] and in series [15] was “inactive” each time. In addition, the MIC turned out to be 100 µg/mL (≈ 259 µM) in series [3] (MTCC 10619, 24 h); 50 µg/mL (≈ 129 µM) in [9] (MTCC 4734, 24 h); 25 µg/mL (≈ 64.7 µM) in series [16] (ATCC 62506, 24 h); 25 µg/mL (≈ 64.7 µM) in series [19] (MTCC 443, 24 h). The zone of inhibition at 100 µg/mL was determined as 12 mm in [4]; 18 mm in series [7]; 10 mm in [10] (MTCC 4734, 12 h, read-out: IZ); 8 mm in [18].

Consider `Cc1ccc2c(c1)N/C(=C\C(=O)c1cccc3ccccc13)C(=O)O2`, for which the MIC result in [1], in [3], in [9], in [11], in series [12] and in [14] was “inactive” each time. Also, the MIC entry in series [16] and in series [19] was “inactive” each time. Also, the “inhibition zone (IZ)” value in series [2], in series [4], in series [6], in series [7], in series [10] and in [13] was “inactive” throughout. Besides, the “inhibition zone (IZ)” value in [15] and in series [18] was “inactive” throughout.

As for `O=C1Oc2ccc(Cl)cc2N/C1=C\C(=O)c1ccc(-c2ccccc2)cc1`, the MIC in [1] (ATCC 11797, 24 h) turned out to be 25 µg/mL (≈ 66.5 µM); in series [11] (ATCC 9029, 24 h) it was 25 µg/mL (≈ 66.5 µM). In addition, the zone of inhibition at 100 µg/mL is 12 mm in series [2] (ATCC 11797, 72 h, read-out: IZ) and 8 mm in series [15] (ATCC 9029, 72 h, read-out: IZ). Also, the MIC entry in series [3], in series [9], in series [12], in series [14], in series [16] and in series [19] was “inactive” each time. The “inhibition zone (IZ)” value in series [4], in series [6], in [7], in [10], in series [13] and in [18] was “inactive” each time.
